One data set concerns the target T1, P-glycoprotein (P-gp) (Homo sapiens, UniProt P08183).
T1 construct: host or cells: Caco-2 (human colon adenocarcinoma) monolayers, passages 24-35
The data set is described as follows: P-gp inhibitor and inducer experiments on Caco-2 cell monolayer. Format: in vitro ADME. The settings on record: for interaction with P-gp: Caco-2 cell monolayer. Here is the method:
The final concentration of GQD, GQD−GC, and Huang-Lian water extracts were 32, 28, and 6 μg/mL, respectively. […]
containing glucose (25 mM) and HEPES (10 mM). The final concentration of berberine was 5 µM. The final concentration of DMSO was below 1% (v/v). […]
inducer of Caco-2 cells, respectively. For the inhibitor experiments, the Caco-2 cells were cultivated in DMEM until the 21st day. After removal of the medium, the cells were incubated for 30 minutes with HBSS containing 5 µM of verapamil. For the inducer experiments, the cells were cultivated in DMEM until the 18th day, and then […]
was removed on the 21st day, and the cells were then incubated for 30 min with HBSS.
Berberine and glycyrrhizic acid were added to the system following HBSS incubation.
For all bidirectional transport assays, samples (300 µL) were collected after 30, 60, 90, […]
with an equal volume of HBSS. The samples were freeze-dried and then dissolved in 300 µL of methanol. The solutions were filtered through 0.22-µm membranes before […]
3. Inhibitor and inducer experiments […]
respectively. For the inhibition experiments, Caco-2 cells were cultivated in DMEM until the 21st day. After removal of the medium, the cells were incubated for 30 minutes with HBSS containing verapamil (5 µM). For induction experiments, the cells were cultivated in DMEM until the 18th day, and then cultivated in DMEM […]
The medium was removed on the 21st day, and the cells were then incubated for 30 min with HBSS. Berberine and glycyrrhizic acid were added to the system following HBSS incubation.

The test system of the next data set is db/db mice. The data set is described as follows: Evaluation of anti-diabetic effects in db/db mice. Format: in vivo. The following applies: oral, 4 weeks; for anti-diabetic effects: BER 50 mg/kg/d, GLY 80 mg/kg/d alone, 50 or 80 mg/kg/d with BER. The method, then:
Eight-week-old male db/db mice (30–35 g) were used, and the details were described in Supplemental Data. The mice were randomly divided into eight groups. Mice were orally administered with metformin (100 mg/kg/d, n = 6), berberine (50 mg/kg/d, n = 6), glycyrrhizic acid (80 mg/kg/d, n = 6), berberine (50 mg/kg/d) combined with low-dose of glycyrrhizic acid (50 mg/kg/d, n = 6), berberine (50 mg/kg/d) combined with high-dose of glycyrrhizic acid (80 mg/kg/d, n = 6), berberine (50 mg/kg/d) combined with Gan-Cao (2.2 g/kg/d, n = 7), and GQD (18.2 g/kg/d, n = 7) for 4 weeks. For the control group, the […] were administered with an equal volume of water. On day 28, after fasted for 12 h, retro-orbital blood samples were collected, stand for 1 h, and then centrifuged (6,000 rpm, 4°C) for 20 min to obtain serum. Biochemical indicators such as blood glucose and insulin were determined on a Mindray BS-800 analyzer (Mindray Bio-Medical Electronics Co.).
Herbal materials and extracts.
The four component herbs, Puerariae Lobatae Radix (Ge-Gen, GG), Scutellariae Radix (Huang-Qin, HQ), Coptidis Rhizoma (Huang-Lian, HL), and Glycyrrhizae Radix et Rhizoma Praeparata cum Melle (Gan-Cao, GC) were purchased from Tianheng Pharmacy. GQD was prepared by decocting the four component herbs […]
of water for three times (1.5 h, 1.5 h, 0.5 h) to obtain the extracts, followed by a pre-extraction of Ge-Gen using 200 mL of water for 0.5 h. The decoctions were combined, filtered, and concentrated in vacuum at 50 °C. GQD-GC was prepared using the same procedure, except that Gan-Cao was removed from the formula. Final concentration of the GQD-GC extract was equivalent to 1.0 g of the crude drugs per mL. For single herb extracts, the herbs were decocted in 8-fold volume of water for three times (1.5 h, 1.5 h, 0.5 h) and then concentrated. […]
For anti-diabetic study, Eight-week-old male db/db mice (30–35 g) were purchased from Card Vince Laboratory animal Co., Ltd. The mice were bred in a cage (318 × 202 × 135 mm) in a breeding room at 25 °C, 60 ± 5% humidity, and a 12-h dark-light […]
On day 28, db/db mice were fasted for 12 h, and blood was collected and centrifuged to obtain serum for insulin and biochemical tests. After that, 150 µL of plasma was prepared by adding 150 µL of internal standard solution, 150 µL of methanol, and 300 µL of acetonitrile. The processing method was consistent with sample preparation for […]
3.1. Optimization of chromatographic separation
Different solvents (67% methanol, and 100% methanol) were compared to effectively extract both hydrophilic and hydrophobic compounds of GQD. […]
better extraction recovery for most compounds. […]

Entries after “also recorded” stand apart in the source; their conditions may differ.

T1 sequence (P08183 whole entry): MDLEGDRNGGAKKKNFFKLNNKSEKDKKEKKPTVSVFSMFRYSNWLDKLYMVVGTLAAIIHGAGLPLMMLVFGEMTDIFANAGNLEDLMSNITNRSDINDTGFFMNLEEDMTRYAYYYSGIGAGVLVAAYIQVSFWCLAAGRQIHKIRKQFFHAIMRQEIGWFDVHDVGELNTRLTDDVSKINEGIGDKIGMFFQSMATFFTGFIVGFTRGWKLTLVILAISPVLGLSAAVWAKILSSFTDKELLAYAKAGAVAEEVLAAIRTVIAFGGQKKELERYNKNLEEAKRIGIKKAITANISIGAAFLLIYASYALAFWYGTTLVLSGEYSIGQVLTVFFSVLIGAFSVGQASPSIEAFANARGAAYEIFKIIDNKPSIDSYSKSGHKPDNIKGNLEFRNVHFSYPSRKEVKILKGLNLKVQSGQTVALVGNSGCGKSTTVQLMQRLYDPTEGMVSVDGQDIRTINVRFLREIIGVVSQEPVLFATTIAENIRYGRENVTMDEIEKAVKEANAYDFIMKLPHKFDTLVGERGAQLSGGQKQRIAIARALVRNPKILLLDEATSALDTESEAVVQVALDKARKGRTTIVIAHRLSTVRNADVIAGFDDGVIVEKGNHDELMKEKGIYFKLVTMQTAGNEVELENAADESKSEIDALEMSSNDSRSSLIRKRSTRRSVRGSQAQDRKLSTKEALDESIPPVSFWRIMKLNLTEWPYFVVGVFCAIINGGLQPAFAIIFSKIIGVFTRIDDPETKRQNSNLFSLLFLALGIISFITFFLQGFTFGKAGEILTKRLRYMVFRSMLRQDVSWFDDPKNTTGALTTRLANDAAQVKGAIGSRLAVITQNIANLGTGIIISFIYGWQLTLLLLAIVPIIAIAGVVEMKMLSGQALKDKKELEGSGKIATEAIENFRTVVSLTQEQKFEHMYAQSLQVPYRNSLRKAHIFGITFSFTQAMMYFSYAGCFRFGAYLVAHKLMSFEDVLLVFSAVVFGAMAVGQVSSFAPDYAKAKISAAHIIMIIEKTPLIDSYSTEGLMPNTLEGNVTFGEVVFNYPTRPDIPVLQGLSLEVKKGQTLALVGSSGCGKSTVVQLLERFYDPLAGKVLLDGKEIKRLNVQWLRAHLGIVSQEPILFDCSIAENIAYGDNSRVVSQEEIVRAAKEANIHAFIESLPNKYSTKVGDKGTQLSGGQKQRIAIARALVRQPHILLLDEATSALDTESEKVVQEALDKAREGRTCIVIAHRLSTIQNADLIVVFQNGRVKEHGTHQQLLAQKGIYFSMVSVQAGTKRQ

For the compound `CC1(C)[C@@H](O[C@H]2O[C@H](C(=O)O)[C@@H](O)[C@H](O)[C@H]2O[C@@H]2O[C@H](C(=O)O)[C@@H](O)[C@H](O)[C@H]2O)CC[C@]2(C)[C@H]3C(=O)C=C4[C@@H]5C[C@@](C)(C(=O)O)CC[C@]5(C)CC[C@@]4(C)[C@]3(C)CC[C@@H]12` [Compound 36, glycyrrhizic acid], the “interaction with P-gp” value at P-glycoprotein (P-gp) (listed as GLY) is “inhibiting P-glycoprotein; also recorded: P-gp inhibitor”. The “counteraction of the impact of rifampicin on BER transport” value on P-glycoprotein (P-gp) (GLY 5 μM, especially after 150 min treatment) was “could counteract the impact of 5 or 20, but not 50 μM rifampicin”. Also, in the data set with db/db mice (listed as GLY), the anti-diabetic effects result is “did not show observable anti-diabetic effects”.

In the case of `COc1ccc2cc3[n+](cc2c1OC)CCc1cc2c(cc1-3)OCO2` [Compound 24, berberine], the “interaction with P-gp” value at P-glycoprotein (P-gp) is reported as “P-gp substrate”. Moreover, the anti-diabetic effects result with db/db mice (listed as BER) is “confirmed its anti-diabetic activities; also recorded: significant anti-diabetic and hypolipidemic activities”. Further, the “ALT and AST levels (liver damage)” value in the data set with db/db mice (serum) is “decreasing”.
